According to ChEMBL document CHEMBL1201862, “PubChem BioAssay data set” (2004):
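Briefly, cells in 96-well plates were exposed to five compound concentrations for 48 h, and endpoints were estimated by linear interpolation. Abbreviation: GI50, concentration required for 50% inhibition of growth.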 The source made the active and inactive calls. Cut-off read from the data, not from the text of the source: active = GI50 up to about 1.1 µM and inactive = higher.

Tests used:
Test in all cases: NCI-60 cell line screen, 48 h
[1] = test system: MDA-MB-231
[2] = test system: SF-295
[3] = test system: OVCAR-5
[4] = test system: A549
[5] = test system: A498
[6] = test system: TK-10
[7] = test system: K562
[8] = test system: OVCAR-8
[9] = test system: PC-3
[10] = test system: EKVX
[11] = test system: MDA-N
[12] = test system: SK-MEL-28
[13] = test system: DU-145
[14] = test system: RXF 393
[15] = test system: MDA-MB-435
[16] = test system: Malme-3M

SMILES	GI50 [1]	GI50 [2]	GI50 [3]	GI50 [4]	GI50 [5]	GI50 [6]	GI50 [7]	GI50 [8]	GI50 [9]	GI50 [10]	GI50 [11]	GI50 [12]	GI50 [13]	GI50 [14]	GI50 [15]	GI50 [16]
CCCc1[nH]c2ccccc2c1-c1c(CCC)[nH]c2ccccc12	15.3 µM (inactive)	15.7 µM (inactive)	16.9 µM (inactive)	27.7 µM (inactive)	> 86.1 µM (inactive)	21.6 µM (inactive)	7.74 µM (inactive)	3.35 µM (inactive)	5.42 µM (inactive)	16.8 µM (inactive)	7.96 µM (inactive)	7.46 µM (inactive)	11.3 µM (inactive)	20 µM (inactive)	11.9 µM (inactive)	16 µM (inactive)
COc1ccc(-c2oc3cc(-c4cc5oc(-c6ccc(OC)cc6)c(-c6ccc(OC)cc6)c5cc4OC)c(OC)cc3c2-c2ccc(OC)cc2)cc1	> 100 µM (inactive)	> 100 µM (inactive)	> 100 µM (inactive)	> 100 µM (inactive)	> 100 µM (inactive)	> 100 µM (inactive)	> 100 µM (inactive)	> 100 µM (inactive)	> 100 µM (inactive)	> 100 µM (inactive)	> 100 µM (inactive)	> 100 µM (inactive)	> 100 µM (inactive)	> 100 µM (inactive)	> 100 µM (inactive)	> 100 µM (inactive)
CC(CO)(CO)N1C(=O)C2C3C=CC(C3)C2C1=O (stereo unspecified)	> 100 µM (inactive)	> 100 µM (inactive)	> 100 µM (inactive)	> 100 µM (inactive)	> 100 µM (inactive)	> 100 µM (inactive)	> 100 µM (inactive)	> 100 µM (inactive)	> 100 µM (inactive)	> 100 µM (inactive)	> 100 µM (inactive)	> 100 µM (inactive)	> 100 µM (inactive)	52.1 µM (inactive)	> 100 µM (inactive)	> 100 µM (inactive)
C=C(Cl)C(Br)(CCl)CCC(Br)C(C)(C)Cl (stereo unspecified)	1.64 µM (inactive)	5.77 µM (inactive)	7.21 µM (inactive)	17.7 µM (inactive)	17.7 µM (inactive)	12.2 µM (inactive)	2.44 µM (inactive)	3.38 µM (inactive)	6.12 µM (inactive)	5.58 µM (inactive)	3.49 µM (inactive)	4.68 µM (inactive)	13.7 µM (inactive)	2.72 µM (inactive)	3.57 µM (inactive)	2.83 µM (inactive)
O=C1[C@@H]2[C@@H](CN3CN(c4ccccc4)N=C(c4ccccc4)[C@@]23c2ccccc2)C(=O)N1c1ccccc1	4.54 µM (inactive)	15.1 µM (inactive)	4.7 µM (inactive)	6.11 µM (inactive)	18.4 µM (inactive)	1.48 µM (inactive)	2.69 µM (inactive)	5.85 µM (inactive)	6.31 µM (inactive)	4.89 µM (inactive)	5.19 µM (inactive)	11.3 µM (inactive)	7.14 µM (inactive)	2.95 µM (inactive)	5.68 µM (inactive)	1.82 µM (inactive)
C/C(CC(O)(C(F)(F)F)C(F)(F)F)=N/Nc1ccc([N+](=O)[O-])cc1[N+](=O)[O-]	2.28 µM (inactive)	4.1 µM (inactive)		2.54 µM (inactive)	2.39 µM (inactive)	3.56 µM (inactive)	2.44 µM (inactive)	3 µM (inactive)	2.78 µM (inactive)	2.26 µM (inactive)	4.46 µM (inactive)	3.27 µM (inactive)	2.29 µM (inactive)	2.12 µM (inactive)	3.15 µM (inactive)	2.11 µM (inactive)
COc1ccc2cc(CN3CCC(C4CCN(Cc5ccc6cc(OC)ccc6c5)CC4)CC3)ccc2c1	2.52 µM (inactive)	2.99 µM (inactive)	21.8 µM (inactive)	24.9 µM (inactive)	8.43 µM (inactive)	3.25 µM (inactive)	0.455 µM (active)	5.15 µM (inactive)	15.8 µM (inactive)	11.9 µM (inactive)	2.04 µM (inactive)	2.21 µM (inactive)	6.21 µM (inactive)	5.16 µM (inactive)	1.69 µM (inactive)	2.17 µM (inactive)
Cc1cccc(NC(=S)N/N=C2\C(=O)Nc3ccccc32)c1	> 100 µM (inactive)	56.9 µM (inactive)	> 100 µM (inactive)	59.4 µM (inactive)	29.7 µM (inactive)		65.8 µM (inactive)	> 100 µM (inactive)	68.4 µM (inactive)	31.3 µM (inactive)	> 100 µM (inactive)	16.1 µM (inactive)	14.1 µM (inactive)	30.1 µM (inactive)	80.4 µM (inactive)	66.1 µM (inactive)
C=C(C)COc1ccc2c(c1)CCC1C2CCC2(C)C(=O)/C(=N/O)CC12 (stereo unspecified)	1.66 µM (inactive)	4.37 µM (inactive)	3.93 µM (inactive)	9.62 µM (inactive)	11.1 µM (inactive)	1.35 µM (inactive)	2.73 µM (inactive)	6.92 µM (inactive)	2.6 µM (inactive)	2.59 µM (inactive)	3.47 µM (inactive)	17.2 µM (inactive)	2.12 µM (inactive)	1.19 µM (inactive)	2.27 µM (inactive)	13.8 µM (inactive)
O=c1cnn(C/C=C\CO)c(=O)[nH]1	> 100 µM (inactive)		> 100 µM (inactive)	> 100 µM (inactive)	> 100 µM (inactive)	75.2 µM (inactive)	> 100 µM (inactive)	> 100 µM (inactive)	> 100 µM (inactive)	> 100 µM (inactive)	> 100 µM (inactive)	> 100 µM (inactive)	> 100 µM (inactive)	> 100 µM (inactive)	> 100 µM (inactive)	> 100 µM (inactive)
C[C@]12CC[C@H](OC(=O)Cc3ccc(N(CCCl)CCCl)cc3)CC1=CC[C@@H]1[C@@H]2CC[C@]2(C)C(=O)CC[C@@H]12	> 100 µM (inactive)		> 100 µM (inactive)	> 100 µM (inactive)	> 100 µM (inactive)	> 100 µM (inactive)	> 100 µM (inactive)	> 100 µM (inactive)	> 100 µM (inactive)	> 100 µM (inactive)	> 100 µM (inactive)	> 100 µM (inactive)	> 100 µM (inactive)	> 100 µM (inactive)	> 100 µM (inactive)	> 100 µM (inactive)
CN(C)/C=N/CC(O)c1ccccc1 (stereo unspecified)	> 100 µM (inactive)		> 100 µM (inactive)	> 100 µM (inactive)	> 100 µM (inactive)	> 100 µM (inactive)	> 100 µM (inactive)		> 100 µM (inactive)	> 100 µM (inactive)	> 100 µM (inactive)	> 100 µM (inactive)	> 100 µM (inactive)	> 100 µM (inactive)	> 100 µM (inactive)	> 100 µM (inactive)
CSc1nc2c(c(=O)n1C)N=C(c1ccc(Cl)cc1)CC(c1ccccc1)N2 (stereo unspecified)	11.9 µM (inactive)	21.3 µM (inactive)	33.8 µM (inactive)	25.2 µM (inactive)	33 µM (inactive)		20.7 µM (inactive)	27.8 µM (inactive)	24.3 µM (inactive)	20.9 µM (inactive)	15.7 µM (inactive)	47.8 µM (inactive)	24.7 µM (inactive)	39.4 µM (inactive)	34.4 µM (inactive)	16.1 µM (inactive)
